{"source": "patent US11542515B2", "about": "“Methods and compositions for increasing efficiency of targeted gene modification using oligonucleotide-mediated gene repair” (CIBUS US LLC, priority 2016, dated 2023)", "molecules": {"B1": {"name": "GRON (SEQ ID NO: 79): Cy3/idC GRON targeting the rice accase gene, Example 21 (nucleic acid)", "chain": "CTGACCTGAACTTGATCTCAATTAACCCTTGCGGTTCCAGAACATTGCCTTTTGCAGTCCTCTCAGCATAGCACTCAATGCGGTCTGGGTTTATCTTGCTTCCAACGACAACCCAAGCCCCTCCTCGTAGCTCTGCAGCCATGGGAATGTAGACAAAGGCAGGCTGATTGTATGTCCTAAGGTTCTCAACAATAGTCGAGCC", "modifications": "Cy3 label and idC cap; 5′ CY3/ 3′ 3′DMT dC CPG"}}, "key": {"flax calli": {"system": "flax calli", "assay": "Glyphosate tolerance of flax calli (fresh weight)", "assay_type": "cell-based, Linum usitatissimum", "conditions": "edited callus line Y23 / A23, all glyphosate concentrations tested, p<0.01", "protocol": "(§1) Glyphosate tolerance of calli and regenerated plants was assessed in vitro and in the greenhouse, respectively. Individual calli were cloned by cutting and culturing smaller pieces in fresh regeneration medium to increase callus mass. Calli derived from wild type leaf protoplasts were used as negative control. Calli derived from subcultures of individual callus lines were then pooled and broken up into 0.5-1 mm pieces by blending in liquid MS medium (4.33 g/L MS salts, 3% sucrose and 0.1% Morel and Wetmore vitamins) and 0.25 ml of settled callus pieces was inoculated on regeneration medium containing 0, 0.125, 0.25, 0.5, 1.0 or 2.0 mM glyphosate. Treatments were performed in triplicate, and the experiments were repeated three times. Prior to spray tests, regenerated plants were subjected to a hardening period in a growth chamber (Conviron, Winnipeg, MB) under a 16-h photoperiod with day and night temperatures 21° C. and 18° C. respectively. Hardened plants were transferred to the greenhouse for glyphosate treatment. Wild type control and EPSPS edited plants were sprayed with 10.5 mM or 21.0 mM glyphosate (Roundup Pro, Monsanto). Treatment rates were normalized to a 75.7 ai/A (active ingredient per acre) spray volume to replicate field conditions. […] Plants were evaluated and photographed 6 days after the glyphosate treatment to determine herbicide tolerance. […]"}, "flax plants": {"system": "flax plants", "assay": "Glyphosate spray test of regenerated flax plants in the greenhouse", "assay_type": "in vivo, Linum usitatissimum", "conditions": "10.5 or 21.0 mM spray, 6 days after treatment", "protocol": "as §1"}, "[1]": {"system": "blue fluorescent protein (BFP) gene", "assay": "BFP to GFP conversion by GRON, with or without zeocin/phleomycin, in BFP transgenic protoplasts (flow cytometry)", "assay_type": "cell-based, Arabidopsis thaliana", "conditions": "250 and 1000 μg/ml, 90 min before GRON", "excerpt": "Sommer et al., (Mol Biotechnol. 33:115-22, 2006) describes a reporter system for the detection of in vivo gene conversion that relies upon a single nucleotide change to convert between blue and green fluorescence in green fluorescent protein (GFP) variants. This reporter system was adapted for use in the following experiments using Arabidopsis thaliana as a model species in order to assess efficiency of GRON mediated conversion.\nIn short, for this and the subsequent examples an Arabidopsis thaliana line with multiple copies of a blue fluorescent protein gene was created by methods known to those skilled in the art (see, e.g., Clough and Brent, 1998). […]\nThe purpose of this series of experiments is to compare the conversion efficiencies of the phosphothioate (PS) labeled GRONs with 3PS moieties at each end of the GRON to 2′-O-Me or “2OMe” in the presence and absence of a member of the bleomycin family, Zeocin™ to induce DNA breaks. […] GRONs were delivered into Arabidopsis thaliana BFP protoplasts by PEG treatment and BFP to GFP conversion was determined at 24 h post treatment by cytometry. […]\nSeventy-two h after transfection, cells were analyzed by cytometry using the Attune® Acoustic Focusing cytometer (Applied Biosystems®) with excitation and detection of emission as appropriate for GFP. […]"}, "[2]": {"system": "blue fluorescent protein (BFP) gene", "assay": "BFP to GFP conversion by GRON, with or without zeocin/phleomycin, in BFP transgenic protoplasts (flow cytometry)", "assay_type": "cell-based, Arabidopsis thaliana"}, "bfp gene": {"system": "bfp gene", "assay": "BFP to GFP conversion by CRISPR plasmid plus GRON in BFP transgenic protoplasts (flow cytometry)", "assay_type": "cell-based, Arabidopsis thaliana", "conditions": "72 h", "protocol": "BFP transgenic Arabidopsis thaliana protoplasts derived from induced root tissue were seeded on a flat-bottom 96-well plate, at 250,000 cells per well at a cell density of 1×10^7 cells/ml. The CRISPR encoded plasmids contain the mannopine synthase (MAS) promoter driving the Cas9 coding sequence with an rbcSE9 terminator and the Arabidopsis U6 promoter driving the sgRNA with a poly-T10 terminator. The CRISPR plasmids along with GRON were introduced into protoplasts by PEG mediated delivery at a final concentration of 0.05 μg/μl and 0.16 μM respectively. Protoplasts were incubated in the dark at 23° C. for 72 hours, and then they were analyzed by flow cytometer in order to determine the percentage of GFP positive protoplasts within a given treatment.\nThe CRISPR consists of two components: the plant codon-optimized Streptococcus pyogenes Cas9 (SpCas9) and sgRNA both of which were expressed from the same plasmid. The sgRNA is a fusion of CRISPR RNA (crRNA) and trans-activating crRNA (tracrRNA). The crRNA region contains the spacer sequence used to guide the Cas9 nuclease to the BFP target gene (FIG. 3). 201-mer GRONs targeting BFP with or without wobble bases were used to determine their effect on the rate of BFP to GFP conversion.\n(§2) BFP transgenic Arabidopsis thaliana protoplasts derived from induced root tissue were seeded on a flat-bottom 96-well plate, at 250,000 cells per well at a cell density of 1×10^7 cells/ml. […] Protoplasts were incubated in the dark at 23° C. for 72 hours, and then they were analyzed by flow cytometer in order to determine the percentage of GFP positive protoplasts within a given treatment. […]\nas §2, with “cytometry” for “cytometer”"}, "accase gene": {"system": "accase gene", "assay": "ACCase conversion in rice protoplasts (NGS)", "assay_type": "cell-based, Oryza sativa"}}, "note": "“Also recorded” adds a separate entry of the source. In the oligonucleotide strings, read from the 5' end, every base follows the letter of its sugar. An asterisk marks phosphorothioate; unmarked linkages are phosphodiester. Other units and linkages are bracketed, terminal groups are in braces. A string of capitals states the bases alone. d = 2'-deoxy (DNA)", "data": [{"molecule": "O=C(O)CNCP(=O)(O)O", "note": "[glyphosate]", "values": [{"measurement": "fresh weight of calli with T97I and P101A edits versus wild type calli", "setting": "flax calli", "value": "significantly higher"}, {"measurement": "phenotype of wild type plants", "setting": "flax plants", "value": "wilted and necrotic phenotype typical of glyphosate toxicity"}, {"measurement": "phenotype of plants with the edited EPSPS gene", "setting": "flax plants; Y23 / A23 plants", "value": "minimal phenotypic change"}]}, {"molecule": "Cc1c(N)nc([C@H](CC(N)=O)NC[C@H](N)C(N)=O)nc1C(=O)N[C@H](C(=O)N[C@H](C)[C@@H](O)[C@H](C)C(=O)N[C@H](C(=O)NCCC1=N[C@@H](c2nc(C(=O)NCCCCN=C(N)N)cs2)CS1)[C@@H](C)O)[C@@H](O[C@@H]1O[C@@H](CO)[C@@H](O)[C@H](O)[C@@H]1O[C@H]1O[C@H](CO)[C@@H](O)[C@H](OC(N)=O)[C@@H]1O)c1cnc[nH]1", "note": "[zeocin]", "values": [{"measurement": "effect of antibiotic pre-treatment on BFP to GFP gene editing", "setting": "[1]", "value": "increase in BFP to GFP gene editing"}, {"measurement": "effect of zeocin on BFP to GFP conversion", "setting": "[2]; zeocin 1 mg/ml, 90 min on ice prior to PEG treatment with GRON", "value": "increased BFP to GFP conversion rates"}]}, {"molecule": "BFP/41/3PS: BFP GRON with three adjacent PS modifications at each end (sense dG*dC*dT*dGdAdAdGdCdAdCdTdGdCdAdCdGdCdCdGdTdAdGdGdTdAdAdAdCdGdTdGdGdTdCdAdCdGdAdGdGdGdT*dG*dG*dG)", "values": [{"measurement": "BFP to GFP conversion / editing, comparison in words", "setting": "bfp gene", "value": "more BFP to GFP precise scarless edits"}]}, {"molecule": "CG2: BFP antisense 41 nb 3PS modified (antisense dG*dC*dT*dGdAdAdGdCdAdCdTdGdCdAdCdGdCdCdGdTdAdGdGdTdGdAdAdGdGdTdGdGdTdCdAdCdGdA*dG*dG*dG)", "values": [{"measurement": "BFP to GFP conversion / editing, comparison in words", "setting": "bfp gene", "value": "more efficacious"}]}, {"molecule": "CG3: BFP sense 41 nb 3PS modified (sense CGCTCGTGACCACCTTCACCTACGGCGTGCAGTGCTTCAGC; linkages s3 o34 s3 (s phosphorothioate, o phosphodiester), sugars by position and methylation of C not given here)", "values": [{"measurement": "BFP to GFP conversion / editing, comparison in words", "setting": "bfp gene", "value": "no statistical difference"}]}, {"molecule": "phleomycin [reference compound]", "values": [{"measurement": "effect of antibiotic pre-treatment on BFP to GFP gene editing", "setting": "[1]", "value": "increase in BFP to GFP gene editing; also recorded: dose-dependent increase in GFP positive cells"}, {"measurement": "number of GFP positive cells compared to the BFP/41/NT control", "setting": "[2]; phleomycin 10 μg/mL, GRON BFP/41, 24 h", "value": "no improvement"}, {"measurement": "BFP to GFP conversion frequency", "setting": "[2]; phleomycin 1000 μg/mL pre-treatment 90 min, GRON BFP/41, 24 h", "value": 0.14, "unit": "%"}]}, {"molecule": "B1", "values": [{"measurement": "ACCase conversion", "setting": "accase gene; CRISPR-Cas plasmid plus GRON, 120 h", "value": 0.026, "unit": "%"}, {"measurement": "ACCase conversion", "setting": "accase gene; GRON only, no CRISPR-Cas, 120 hours", "value": 0.002, "unit": "%"}]}]}
